Where two headings read alike, the source gives them in different places.
What was measured:
[1] = Pharmacokinetics after IP and PO dosing; assay type: in vivo, male Balb/c mice; conditions: 10 mg/kg; for half-life / Cmax: male, Balb/c, mouse, plasma; for Cmax: 70551 in 75:25 PG/PEG 400, 70619 in 20:80 Kolliphor EL
Protocol: In order to characterize VPC-70619 as a drug candidate against N-myc, its pharmacokinetic (PK) characteristics were evaluated in Balb/c mice following intraperitoneal (IP) and peroral (PO) administrations. As presented in Figure 5, we determined the PK properties of VPC-70619 and compared it to the parental molecule, VPC-70551. […] The clearance of 70551 for PO delivery was extremely slow, and we could not determine the T1/2 in the experimental conditions used for this assay. […] Therefore, VPC-70619 was deemed to have appropriate efficacy in vivo, and a better pharmacokinetic profile due to higher bioavailability for both oral and intraperitoneal administration.
Bienta Enamine Biology Services (Kyiv, Ukraine) conducted PK studies according to the Enamine PK study protocols and Institutional Animal Care and Use Guidelines. The PK studies were reviewed and approved by the Bienta Animal Care and Use Committee (BACUC) under the project identification codes PK-VPC-112618 (approved 17 December 2018) and PK-VPC-101119 (approved 21 October 2019), for VPC-70551 and […], respectively. Evaluation of 70619 and 70551 was conducted in male Balb/c mice through intraperitoneal (IP) and peroral (PO) administration. Measurements were taken at six time points: 5, 15, 60, 120, 240, and 360 min for IP; 15, 30, 60, 120, 240, and 480 min for PO. Four mice were included in each treatment group for each time point; one mouse each for IP and PO was included as a control. Initial target administration for both IP and PO was 10 mg/kg dose level, 2 mg/mL dose concentration, and 5 mL/kg dose volume. Concentration of the compounds was evaluated in the plasma samples using an LC-MS/MS system.

[2] = tested on: N-Myc-Max transcription activity (LNCaP-NMYC cells); assay: Myc transcription assay (Cignal Myc reporter, luciferase) in LNCaP-NMYC cells; assay type: cell-based
Procedure, shortened: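 LNCaP-NMYC cells transfected with Cignal Myc luciferase reporter were treated 24 h with compounds at 5 µM or 10 µM. Read-out: inhibition of N-Myc-Max-driven reporter luminescence.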

IMR32 cells = assay: Cell viability (CellTiter-Glo), IMR32; assay type: cell-based; conditions: Homo sapiens, IMR-32
Procedure, shortened: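 IMR32 cells (10,000/well) and HO15.19 cells (2000/well), both in EMEM with 10% FBS, were seeded 24 h before 72 h exposure to serial compound dilutions starting at 25 μM. Viability was read by CellTiter-Glo luminescence to give IC50. Single-point testing used 10 µM.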

N-Myc-Max heterodimer = target: T1, N-Myc-Max heterodimer (Homo sapiens, UniProt P04198+P61244); assay: Proximity ligation assay (PLA) in LNCaP-NMYC cells; assay type: cell-based; conditions: 10 µM, 72 h
T1 construct: expressed in transfected cells; host or cells: LNCaP-NMYC cells (gift from David Rickman)
Protocol: To confirm that 70619 could disrupt the binding of N-Myc-Max DBD to DNA, we performed a bio-layer interferometry (BLI) assay where we immobilized biotinylated E-box sequence on streptavidin sensors, and we evaluated recombinant N-Myc-Max binding to the DNA in the presence of increasing concentrations of VPC-70619. […] We observed a similar number of interactions when comparing the ratio of signal per nuclei in the presence or absence of the compound.
LNCaP-NMYC cells were seeded on coverslips at a density of 10^5 cells per well of a 6-well plate. After incubation for 24 h the cells were treated with 10 μM of either 10074-G5 or 70619 for 72 h. The coverslips were fixed with methanol:acetone (3:1) and incubated with primary antibodies n-Myc Antibody (NMYC-1) (Novus Biologicals NB200-109) (Littleton, CO, USA) and MAX Antibody (C-17) (Santa Cruz sc-197) (Dallas, TX, USA) overnight at 4 °C. PLA was conducted using the Duolink In Situ Detection Reagents Red kit (Sigma DUO92008) according to the manufacturer’s protocol. The coverslips were then mounted on slides with VECTASHIELD mounting media with DAPI, and images were taken on ZEISS 780 confocal microscope at 40× magnification.

T1 sequence (P04198 whole entry): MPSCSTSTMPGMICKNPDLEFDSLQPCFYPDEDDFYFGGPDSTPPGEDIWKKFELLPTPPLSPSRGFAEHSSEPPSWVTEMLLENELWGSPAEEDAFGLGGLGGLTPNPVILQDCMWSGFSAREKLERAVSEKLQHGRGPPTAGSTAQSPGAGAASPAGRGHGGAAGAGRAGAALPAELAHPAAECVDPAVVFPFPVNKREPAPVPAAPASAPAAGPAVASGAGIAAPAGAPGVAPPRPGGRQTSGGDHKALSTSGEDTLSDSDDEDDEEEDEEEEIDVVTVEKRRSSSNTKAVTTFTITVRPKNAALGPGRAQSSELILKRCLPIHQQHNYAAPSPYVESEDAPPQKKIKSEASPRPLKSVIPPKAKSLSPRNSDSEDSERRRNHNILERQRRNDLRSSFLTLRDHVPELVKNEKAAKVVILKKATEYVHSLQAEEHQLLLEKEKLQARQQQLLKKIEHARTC
T1 sequence (P61244 whole entry): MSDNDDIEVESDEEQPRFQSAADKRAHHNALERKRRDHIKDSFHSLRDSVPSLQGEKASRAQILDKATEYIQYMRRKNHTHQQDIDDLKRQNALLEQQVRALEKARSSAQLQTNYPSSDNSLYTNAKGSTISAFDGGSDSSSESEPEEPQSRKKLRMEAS

## N#Cc1ccc(NNC(=O)c2ccc(C#N)c(Cl)c2)c(C(F)(F)F)c1 [compound 70619]
[1]; ip, read-out: plasma half-life (T1/2) IP
  half-life: 5.5 h
[1]; po, read-out: plasma half-life (T1/2) PO
  half-life: 7.12 h
[1]; IP, read-out: Cmax IP
  Cmax: 29500 ng/mL
[1]; PO, read-out: Cmax PO
  Cmax: 24000 ng/mL
[1]; single dose IP or PO
  adverse effects / signs of toxicity in PK animals: No signs of toxicity
[2]; 24 h, treatment for 1 day, 0–25 µM, read-out: IC50 in the luciferase transcription inhibition assay
  IC50: 4.3 µM
[2]; LNCaP-NMYC, 5 µM
  transcription inhibition activity at 5 µM (in words): restoring the inhibitory activity
IMR32 cells
  inhibition at 10 µM: 99.4%
N-Myc-Max heterodimer
  effect on N-Myc-Max heterodimer interactions (in words): does not disrupt Myc-Max complexes
N-Myc-Max heterodimer; listed as VPC-70619
  effect on N-Myc-Max heterodimer interactions (in words): does not disrupt the N-Myc-Max heterodimer formation

— paper PMC8910697, “Development of VPC-70619, a Small-Molecule N-Myc Inhibitor as a Potential Therapy for Neuroendocrine Prostate Cancer” (International Journal of Molecular Sciences, 2022)
